Data from ChEMBL document CHEMBL1126778, “Adenosine A1 antagonists. 3. Structure-activity relationships on amelioration against scopolamine- or N6-((R)-phenylisopropyl)adenosine-induced cognitive disturbance” (J Med Chem, 1993).
Several values for one entry are separate records, joined by “and”; a condition that tells them apart may be missing. Equal values may be shown once.

Key:
Rattus norvegicus [1] = experiment: Acquisition time in Scopolamine induced avoidance test (performed in rat) for antagonistic activity after peroral administration of 0.08 mg/kg; assay type: functional; settings: route oral
Rattus norvegicus [2] = experiment: Acquisition time in Scopolamine induced avoidance test (performed in rat) for antagonistic activity after peroral administration of 20 mg/kg; assay type: functional; settings: route oral
Mus musculus [3] = experiment: Acquisition time in (R)-PIA) induced avoidance test (performed in mice) for antagonistic activity after p.o. administration of 0.31 mg/kg; assay type: functional; settings: route oral
Rattus norvegicus [4] = experiment: Acquisition time in Scopolamine induced avoidance test (performed in rat) for antagonistic activity after peroral administration of 5 mg/kg; assay type: functional; settings: route oral
Mus musculus [5] = experiment: Acquisition time in (R)-PIA) induced avoidance test (performed in mice) for antagonistic activity after peroral administration of 0.08 mg/kg; assay type: functional; settings: route oral
Mus musculus [6] = experiment: Acquisition time in (R)-PIA) induced avoidance test (performed in mice) for antagonistic activity after peroral administration of 1.25 mg/kg; assay type: functional; settings: route oral
Rattus norvegicus [7] = experiment: Acquisition time in Scopolamine induced avoidance test (performed in rat) for antagonistic activity after p.o. administration of 0.31 mg/kg; assay type: functional; settings: route oral
Mus musculus [8] = experiment: Acquisition time in (R)-PIA) induced avoidance test (performed in mice) for antagonistic activity after peroral administration of 5 mg/kg; assay type: functional; settings: route oral
Rattus norvegicus [9] = experiment: Acquisition time in Scopolamine induced avoidance test (performed in rat) for antagonistic activity after peroral administration of 1.25 mg/kg; assay type: functional; settings: route oral
Mus musculus [10] = experiment: Tested for locomotor activity after oral administration of 5 mg/kg for 120 min; assay type: functional
Mus musculus [11] = experiment: Tested for locomotor activity after oral administration of 10 mg/kg for 120 min; assay type: functional
Mus musculus [12] = experiment: Tested for locomotor activity after oral administration of […] for 120 min; assay type: functional
Adenosine receptor A1 [13] = molecular target: T1, Adenosine receptor A1 (Rattus norvegicus, UniProt P25099); experiment: Tested for binding affinity against Adenosine A1 receptor from rat forebrain membranes, using N6-[3H]- cyclohexyladenosine as radioligand
T1 sequence (P25099 whole entry): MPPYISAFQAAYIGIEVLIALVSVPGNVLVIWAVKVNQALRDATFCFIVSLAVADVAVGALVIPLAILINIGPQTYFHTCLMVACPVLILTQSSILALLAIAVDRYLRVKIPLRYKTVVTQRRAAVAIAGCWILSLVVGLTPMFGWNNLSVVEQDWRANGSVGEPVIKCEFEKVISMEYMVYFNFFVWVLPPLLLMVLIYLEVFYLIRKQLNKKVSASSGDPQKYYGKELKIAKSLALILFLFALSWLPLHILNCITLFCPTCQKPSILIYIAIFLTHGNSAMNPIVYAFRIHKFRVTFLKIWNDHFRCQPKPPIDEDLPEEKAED

Rattus norvegicus [14] = experiment: Retention time in Scopolamine induced avoidance test (performed in rat) for antagonistic activity after peroral administration of 20 mg/kg; assay type: functional, organism-based; parameters: dose 20 mg/kg
Mus musculus [15] = experiment: Retention time in (R)-PIA) induced avoidance test (performed in mice) for antagonistic activity after p.o. administration of 1.25 mg/kg; assay type: functional, organism-based; parameters: dose 1.25 mg/kg
Mus musculus [16] = experiment: Retention time in (R)-PIA) induced avoidance test (performed in mice) for antagonistic activity after peroral administration of 0.08 mg/kg; assay type: functional, organism-based; parameters: dose 0.08 mg/kg
Rattus norvegicus [17] = experiment: Retention time in Scopolamine induced avoidance test (performed in […]) for antagonistic activity after peroral administration of 5 mg/kg; assay type: functional, organism-based; parameters: dose 5 mg/kg
Rattus norvegicus [18] = experiment: Acquisition time in Scopolamine induced avoidance test (performed in rat) for antagonistic activity after p.o. administration of 0.08 mg/kg; assay type: functional; settings: route oral
Mus musculus [19] = experiment: Acquisition time in (R)-PIA) induced avoidance test (performed in mice) for antagonistic activity after p.o. administration of 1.25 mg/kg; assay type: functional; settings: route oral
Mus musculus [20] = experiment: Retention time in (R)-PIA) induced avoidance test (performed in mice) for antagonistic activity after peroral administration of 0.02 mg/kg
Mus musculus [21] = experiment: Retention time in (R)-PIA) induced avoidance test (performed in mice) for antagonistic activity after peroral administration of 5 mg/kg; assay type: functional, organism-based; parameters: dose 5 mg/kg
Mus musculus [22] = experiment: Retention time in (R)-PIA) induced avoidance test (performed in mice) for antagonistic activity after peroral administration of 0.31 mg/kg; assay type: functional, organism-based; parameters: dose 0.31 mg/kg
Rattus norvegicus [23] = experiment: Retention time in Scopolamine induced avoidance test (performed in rat) for antagonistic activity after p.o. administration of 0.08 mg/kg; assay type: functional, organism-based; parameters: dose 0.08 mg/kg
Rattus norvegicus [24] = experiment: Acquisition time in Scopolamine induced avoidance test (performed in rat) for antagonistic activity after p.o. administration of 5 mg/kg; assay type: functional; settings: route oral
Rattus norvegicus [25] = experiment: Retention time in Scopolamine induced avoidance test (performed in rat) for antagonistic activity after p.o. administration of 0.31 mg/kg; assay type: functional, organism-based; parameters: dose 0.31 mg/kg
Rattus norvegicus [26] = experiment: Retention time in Scopolamine induced avoidance test (performed in rat) for antagonistic activity after peroral administration of 1.25 mg/kg; assay type: functional, organism-based; parameters: dose 1.25 mg/kg
Mus musculus [27] = experiment: Acquisition time in (R)-PIA) induced avoidance test (performed in mice) for antagonistic activity after peroral administration of 0.02 mg/kg; settings: route oral
Mus musculus [28] = experiment: Retention time in (R)-PIA) induced avoidance test (performed in mice) for antagonistic activity after peroral administration of 0.02 mg/kg; assay type: functional, organism-based; parameters: dose 0.02 mg/kg
Mus musculus [29] = experiment: Acquisition time in (R)-PIA) induced avoidance test (performed in mice) for antagonistic activity after peroral administration of 0.02 mg/kg; assay type: functional; settings: route oral
Rattus norvegicus [30] = experiment: Retention time in Scopolamine induced avoidance test (performed in rat) for antagonistic activity after peroral administration of 5 mg/kg; assay type: functional, organism-based; parameters: dose 5 mg/kg
Rattus norvegicus [31] = experiment: Retention time in Scopolamine induced avoidance test (performed in rat) for antagonistic activity after peroral administration of 0.02 mg/kg; assay type: functional, organism-based; parameters: dose 0.02 mg/kg
Rattus norvegicus [32] = experiment: Retention time in Scopolamine induced avoidance test (performed in […]) for antagonistic activity after peroral administration of 1.25 mg/kg; assay type: functional, organism-based; parameters: dose 1.25 mg/kg
Adenosine receptor A1 [33] = molecular target: T2, Adenosine receptor A1 (Cavia porcellus, UniProt P47745); experiment: Binding affinity against Adenosine A1 receptor from guinea pig forebrain membranes by N6-[3H]- cyclohexyladenosine displacement.
T2 sequence (P47745 whole entry): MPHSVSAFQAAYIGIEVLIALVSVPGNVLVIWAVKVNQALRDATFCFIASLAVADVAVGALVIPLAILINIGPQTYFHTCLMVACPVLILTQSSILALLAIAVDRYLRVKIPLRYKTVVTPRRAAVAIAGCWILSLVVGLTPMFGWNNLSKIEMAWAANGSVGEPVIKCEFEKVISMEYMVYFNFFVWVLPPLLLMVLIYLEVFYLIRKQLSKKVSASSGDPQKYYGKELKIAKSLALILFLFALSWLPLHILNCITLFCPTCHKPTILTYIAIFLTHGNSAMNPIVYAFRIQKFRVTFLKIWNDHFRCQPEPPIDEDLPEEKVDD

Adenosine A2 receptor = Adenosine A2 receptor (Rattus norvegicus, UniProt P29276+P30543); experiment: Binding affinity at Adenosine A2 receptor from rat striatal membranes by N-[3H] ethyladenosin-5'- uronamide displacement.
Mus musculus [34] = experiment: Acquisition time in (R)-PIA) induced avoidance test (performed in mice) for antagonistic activity after peroral administration of 20 mg/kg; assay type: functional; settings: route oral
Mus musculus [35] = experiment: Retention time in (R)-PIA) induced avoidance test (performed in mice) for antagonistic activity after peroral administration of 20 mg/kg; assay type: functional, organism-based; parameters: dose 20 mg/kg

Structure (SMILES)	Acquisition time (Rattus norvegicus [2])	Acquisition time (Mus musculus [3])	Acquisition time (Mus musculus [5])	Acquisition time (Rattus norvegicus [7])	Acquisition time (Mus musculus [8])	Acquisition time (Rattus norvegicus [9])	Ki (Adenosine receptor A1 [13])	Retention time (Rattus norvegicus [14])	Retention time (Mus musculus [15])	Retention time (Mus musculus [16])	Retention time (Rattus norvegicus [17])	Acquisition time (Rattus norvegicus [18])	Acquisition time (Mus musculus [19])	Retention time (Mus musculus [20])	Retention time (Mus musculus [21])	Retention time (Mus musculus [22])	Retention time (Rattus norvegicus [23])	Acquisition time (Rattus norvegicus [24])	Retention time (Rattus norvegicus [25])	Retention time (Rattus norvegicus [26])	other results
Cn1c(=O)c2nc[nH]c2n(C)c1=O.O [THEOPHYLLINE]	10.6 s	35.8 s	30.8 s	12.2 s	20.3 s	11.1 s															Acquisition time (Rattus norvegicus [1]): 10.6 s; Acquisition time (Rattus norvegicus [4]): 10.8 s; Acquisition time (Mus musculus [6]): 16.2 s; Locomotor activity (Mus musculus [10]): 7682 Counts; Locomotor activity (Mus musculus [11]): 11031 Counts; Locomotor activity (Mus musculus [12]): 5914 Counts
CCCn1c(=O)c2nc(C3CC4CCCC4C3)[nH]c2n(CCC)c1=O (stereo unspecified)	9.9 s	23.3 s	24 s	11.1 s	42.7 s	9.5 s	0.75 nM	35.1 s	317 s	83.2 s	22.6 s	10.8 s	14.5 s	18.5 s	384 s	140 s	30.7 s	11.1 s	29.6 s	18 s	Acquisition time (Mus musculus [27]): 13.4 s
CCCn1c(=O)c2nc(C34CC5CC(CC3C5)C4)[nH]c2n(CCC)c1=S		20.4 s	19.5 s	22.2 s	17.3 s	30.5 s	0.19 nM		164 s and 173 s	124 s		32.2 s	18.4 s		230 s		164 s	24.9 s	113 s		Retention time (Mus musculus [28]): 37 s; Acquisition time (Mus musculus [29]): 17.5 s; Retention time (Rattus norvegicus [30]): 159 s; Retention time (Rattus norvegicus [31]): 129 s; Retention time (Rattus norvegicus [32]): 149 s; Ki (Adenosine receptor A1 [33]): 1.3 nM; Ki (Adenosine A2 receptor): 380 nM
CCCn1c(=O)c2nc(C34CC5CC(CC3C5)C4)[nH]c2n(CCc2ccc(N)cc2)c1=O	18.3 s	14.8 s		8.3 s	14.7 s	15.3 s		232 s	168 s		182 s	12 s	20.3 s	36 s	92.5 s	60.3 s	20.5 s	11.9 s	95.9 s	136 s	Acquisition time (Mus musculus [34]): 14.7 s; Retention time (Mus musculus [35]): 98.7 s; Ki (Adenosine A2 receptor): > 100000 nM; Acquisition time (Mus musculus [27]): 18.1 s
CCCN1C(=O)N2C[C@@H](CC)N=C2c2[nH]c(C34CC5CC(CC3C5)C4)nc21	17.2 s	15.9 s	35.1 s	14.1 s	23.7 s	20.1 s	0.56 nM	76.6 s	326 s	156 s	42.1 s	17.3 s	16.5 s	16.1 s	186 s	192 s	27.1 s	14.4 s	74.1 s	80.9 s	Acquisition time (Mus musculus [27]): 13.6 s
